≈ marks a conversion by molar mass, not a printed value.
What was measured:
[1] = tested on: C. crescentus (strain CB15N); test: Minimum inhibitory concentration (macrodilution), C. crescentus CB15N; format: cell-based; conditions: Caulobacter vibrioides
Experimental: (§1) All cultures were grown for 17 hrs.
Minimum inhibitory concentration for compounds 1, 6, 7, 8, and 9, determined as in Example 3 using the C. crescentus CB15N strain.

[2] = tested on: C. crescentus CB15N cells; test: Reversibility of cell division inhibition after wash-out; format: cell-based, Caulobacter crescentus; conditions: pre-incubated with 6 μM for 2.5 hours, then diffused out on agarose pad, FIG. 10
Experimental: To test whether the inhibitory effect of compound 1 is reversible, the compound was washed out of pre-treated cells and their growth and division monitored using microscopy. A culture of C. crescentus CB15N cells was pre-incubated with 6 μM compound 1 for 2.5 hours at 30° C. A small aliquot of this culture was applied to an agarose pad (2% w/v agarose in PYE media), and the cells were imaged over time while incubating them on the microscope stage at 30° C.

Vibrio cholerae = test: Minimum inhibitory concentration, pathogenic strain Vibrio cholerae; format: cell-based
C. crescentus CB15N = test: Viability of C. crescentus after exposure to antibiotics (colony counts); format: cell-based, Caulobacter crescentus; conditions: antibiotic at twice its MIC, FIG. 7
Experimental: Kanamycin was used as a control since it is a known bacteriocidal agent. An overnight culture of [MUT] in PYE medium was diluted to an optical density of 0.1 (λ=600 nm) and incubated further for 1.5 hrs. After the incubation, the culture was aliquoted into 15 mL conical tubes (1 mL of culture per aliquot) and treated with antibiotics. The final concentration of the antibiotics was twice its minimum inhibitory concentration. Upon addition of antibiotics, the culture tubes were wrapped with aluminum foil and shaken at 250 rpm at 30° C. At every 30 min, 100 μL was withdrawn from each aliquot and serially diluted five times in [MUT] medium. 100 μL of the fifth dilution was spread on PYE plates, the plates were incubated for two days at 30° C., and the number of colonies formed on the plates was counted.

E. coli ΔtolC [3] = test: Minimum inhibitory concentration (macrodilution), E. coli ΔtolC; conditions: Escherichia coli
Experimental: Determination of the minimum inhibitory concentration (MIC): The MIC of the small molecule hits was determined using a macrodilution method. All cultures were grown in M8 medium at 37° C., except for C. crescentus (strain CB15N) which was cultured in PYE media at 30° C. C. crescentus and E. coli cultures were incubated while shaking at 200 rpm. Pathogenic clinical strains were grown in static conditions. All cultures were grown for 17 hrs.

[4] = tested on: FtsB, FtsL, FtsK and FtsI localization in C. crescentus cells; test: Localization of fluorescently-tagged Fts proteins; format: cell-based, Caulobacter crescentus; conditions: late division stage cells vs DMSO control, FIG. 8C
Experimental: Strains of C. crescentus that express fluorescently-tagged Fts proteins (FtsB, FtsL, FtsK, and FtsI) were cultured overnight. The overnight cultures were diluted 10-fold and incubated for an hour at 30° C. prior to compound treatment. Cells were induced with xylose (0.3%) to trigger the expression of fluorescently-tagged Fts proteins. After inducing with xylose for 45 min, cells were mounted on agarose pads and imaged as described in Example 4.
To analyze changes in the localization of Fts proteins, cells in the late division stage were selected for image analysis. At this stage of the cell cycle, cells have a visible constriction at the midcell, and the Fts proteins localize to the constriction site. […] Within the population of cells selected for a visible constriction, cells that have a single fluorescence focus of Fts proteins were counted. […] These cells have clear constrictions at the midcell as shown in brightfield images. In the fluorescence channel, the signal from Venus-FtsI is localized at the septum in the DMSO sample. In contrast, the fluorescence signal is more diffuse throughout the cell body in the sample treated with compound 1. […] The observed decrease in Fts protein localization in the presence of compound 1 was statistically significant when compared to the DMSO solvent control samples.

[5] = tested on: C. crescentus strain (MT97) that expresses mipZ-yfp; test: In vivo screen of cell morphology (septation) by microscopy, C. crescentus; format: cell-based, Caulobacter crescentus; conditions: 20 μM in agarose pad, FIG. 3
Experimental: In vivo screen with a Caulobacter crecentus strain that expresses MipZ-YFP: Hits from the in vitro screens were tested for their activity in vivo. A C. crescentus strain (MT97) that expresses mipZ-yfp from the native mipZ promoter was used. An overnight culture of MT97 was diluted to an OD600 of ˜0.1, and the diluted culture was further grown for at least an hour prior to treatment with the compound. Compounds were mixed with a solution of 1% agarose in M2G medium to achieve a final concentration of 20 μM. Cells were inoculated onto the surface of the compound-containing agarose pad (1 μL inoculum per pad), and we observed the cell morphology and localization of MipZ-YFP for a period of 24 hrs. In the time between microscopic observations, the inoculated pads were kept at 30° C. to promote growth.

Shigella boydii = test: Minimum inhibitory concentration, pathogenic strain Shigella boydii; format: cell-based
Experimental: as §1

Acinetobacter baumannii = test: Minimum inhibitory concentration, pathogenic strain Acinetobacter baumannii; format: cell-based
Experimental: as §1

[6] = tested on: C. crescentus CB15N pMT182 (PxylX-mipZ); test: Cell length microscopy with MipZ overexpression; format: cell-based, Caulobacter crescentus; conditions: 0.2% xylose induction, FIG. 4
Experimental: (§2) Optical microscopy and image analysis: A Nikon Eclipse TE2000E inverted microscope with a Perfect Focus system and an encoded z-stage for phase contrast and epifluorescence microscopy was used. To observe the effect of Compound 1 on cell division, freshly grown cells from an overnight culture were treated with the compound. Small aliquots (1-2 μL) of the cells dosed with Compound 1 were mounted on 1% agarose pads for microscopy. To visualize FtsZ localization, MT196 cells (C. crescentus CB15N PvanA-ftsZ-yfp) were induced with vanilate (0.5 mM) for 1 hr prior to imaging. PSICIC, a MATLAB-based script, was used to measure cell lengths (n≧100) for the following strains of C. crescentus: CB15N, CB15N pMT182 (PxylX-mipZ, Cm^R), and CB15N ΔzapA. The CB15N pMT182 strain was treated with 0.2% xylose to induce overexpression of MipZ. For cells that could not be accurately detected by PSICIC, the cell length was manually traced in MetaMorph or ImageJ and the pixel traces were converted to microns. GraphPad InStat was used for statistical analysis of cell length distributions.

[7] = tested on: C. crescentus CB15N ΔzapA; test: Cell length microscopy in ΔzapA strain; format: cell-based, Caulobacter crescentus; conditions: FIGS. 5 and 6
Experimental: as §2

Escherichia coli = test: Septation during reproduction, E. coli (FIG. 3); format: cell-based
E. coli ΔtolC [8] = test: Cephalexin-induced cell lysis and filamentation (optical density); format: cell-based, Escherichia coli; conditions: 10 μg/mL cephalexin plus compound 1 (0 to 12.5 μM), FIG. 9C
[9] = tested on: MRSA strain of Staphylococcus aureus; conditions: normally lethal dose of MRSA; cited from earlier work
E. coli = conditions: reported in the literature; cited from earlier work
[10] = C. crescentus CB15N strain, determined as in Example 3

COc1ccc2ccccc2c1/C=N/NC(=O)CCn1c(C)nc2ccccc21 [Compound 8]
MIC [1, 10]: > 20 µM

Cc1nc2ccccc2n1CCC(=O)N/N=C/c1ccccc1O [Compound 9]
MIC [1, 10]: 15 µM (≈ 4.84 µg/mL)

O=C(CCn1c(C(F)(F)F)nc2ccccc21)N/N=C/c1c(O)ccc2ccccc12 [Compound 6]
MIC [1, 10]: 7.5 µM (≈ 3.2 µg/mL)

COc1ccc2ccccc2c1/C=N/NC(=O)CCn1c(C(F)(F)F)nc2ccccc21 [Compound 7]
MIC [1, 10]: > 20 µM

Cc1nc2ccccc2n1CCC(=O)N/N=C/c1c(O)ccc2ccccc12 [Compound 1]
reversibility of inhibitory effect on cell division [2]: reversible | MIC (Vibrio cholerae): 0.4 µM (≈ 0.149 µg/mL) | colony forming units over time (C. crescentus CB15N): did not significantly alter the colony forming units over time | MIC ([1]; C. crescentus): 5 µM (≈ 1.86 µg/mL) | MIC [1, 10]: 5 µM (≈ 1.86 µg/mL) | MIC (E. coli ΔtolC [3]): 13.5 µM (≈ 5.03 µg/mL) | population of cells with midcell localization of Fts proteins [4]: decreased the population of cells with a midcell localization of Fts proteins | effect on septation / cell morphology [5]: inhibits septation during reproduction in C. crescentus | MIC (Shigella boydii): 50 µM (≈ 18.6 µg/mL) | MIC (Acinetobacter baumannii): 25 µM (≈ 9.31 µg/mL) | effect on cell elongation caused by MipZ overexpression [6]: rescues cell elongation caused by MipZ overexpression | effect on cell length in ΔzapA strain [7]: restores cell lengths to near normal lengths | effect on septation (Escherichia coli): inhibits septation during reproduction | cell filamentation and lysis on co-treatment with cephalexin (E. coli ΔtolC [8]): elongated slowly and did not undergo cell lysis

NC(=O)c1c(F)ccc(OCc2nc3cc(Cl)cnc3s2)c1F [PC190723]
protection of mice from lethal infection [9]: protect mice from a normally lethal dose of the MRSA strain of Staphylococcus aureus | MIC (E. coli): > 180 µM
